According to the NIST ThermoML archive (doi:10.1016/j.tca.2015.02.020):

Test: molar heat capacity at constant pressure; xn = mol fraction of the nth substance listed
Conditions: 101 kPa, Glass, Small sample (50 mg) DSC

CC(O)CN (stereo not given) [1-amino-2-propanol] + O
Conditions | molar heat capacity at constant pressure [J/K/mol]
126.79 K, x1 = 0.15 | 27.11
126.79 K, x1 = 0.16 | 28.24
126.94 K, x1 = 0.19 | 28.86
127.55 K, x1 = 0.19 | 28.57
127.56 K, x1 = 0.26 | 32.53
127.57 K, x1 = 0.26 | 32.86
127.69 K, x1 = 0.15 | 27.64
127.71 K, x1 = 0.16 | 27.96
127.73 K, x1 = 0.68 | 51.16
127.76 K, x1 = 0.68 | 51.16
130.83 K, x1 = 0.19 | 29.15
130.83 K, x1 = 0.26 | 33.19
130.96 K, x1 = 0.15 | 28.71
130.98 K, x1 = 0.16 | 28.51
131 K, x1 = 0.68 | 52.86
131.45 K, x1 = 0.15 | 28.71
131.45 K, x1 = 0.16 | 30.14
131.61 K, x1 = 0.19 | 30.31
132.23 K, x1 = 0.26 | 34.17
132.42 K, x1 = 0.68 | 52.29
134.1 K, x1 = 0.19 | 29.73
134.1 K, x1 = 0.26 | 33.85
134.24 K, x1 = 0.15 | 29.5
134.25 K, x1 = 0.16 | 29.05
134.27 K, x1 = 0.68 | 54
136.13 K, x1 = 0.15 | 30.3
136.13 K, x1 = 0.16 | 31.77
136.28 K, x1 = 0.19 | 32.04
136.9 K, x1 = 0.26 | 35.49
137.09 K, x1 = 0.68 | 54.57
140.66 K, x1 = 0.19 | 31.17
140.66 K, x1 = 0.26 | 35.49
140.8 K, x1 = 0.15 | 30.83
140.8 K, x1 = 0.16 | 33.39
140.81 K, x1 = 0.15 | 31.63
140.81 K, x1 = 0.16 | 30.41
140.83 K, x1 = 0.68 | 56.27
140.96 K, x1 = 0.19 | 32.9
141.59 K, x1 = 0.26 | 36.8
141.77 K, x1 = 0.68 | 55.7
143.95 K, x1 = 0.19 | 31.75
143.95 K, x1 = 0.26 | 36.15
144.09 K, x1 = 0.15 | 31.63
144.1 K, x1 = 0.16 | 30.95
144.11 K, x1 = 0.68 | 57.41
145.5 K, x1 = 0.16 | 34.75
145.65 K, x1 = 0.19 | 34.35
146.28 K, x1 = 0.26 | 38.12
146.29 K, x1 = 0.15 | 33.22
146.45 K, x1 = 0.68 | 56.84
150.19 K, x1 = 0.16 | 36.11
150.34 K, x1 = 0.19 | 35.5
150.53 K, x1 = 0.19 | 33.48
150.53 K, x1 = 0.26 | 38.12
150.67 K, x1 = 0.15 | 33.22
150.68 K, x1 = 0.16 | 32.31
150.69 K, x1 = 0.68 | 59.68
150.97 K, x1 = 0.26 | 39.1
150.99 K, x1 = 0.15 | 34.29
151.15 K, x1 = 0.68 | 57.98
153.82 K, x1 = 0.19 | 34.06
153.82 K, x1 = 0.26 | 39.1
153.96 K, x1 = 0.15 | 34.02
153.98 K, x1 = 0.16 | 33.12
153.98 K, x1 = 0.68 | 60.82
